Test system: protease
Experiment: Protease activity retention in detergent use solution (4000 ppm, 5 GPG water; peptidyl substrate, glycine buffer pH 9.0)
Type: biochemical
Conditions: for Relative Protease Enzyme Activity: use solution at 120° F.
Procedure: The enzyme activities in the detergents with different phosphonate levels were tested at 4000 ppm in 5 grains per gallon (GPG) water at 120° F. with various time points collected up to 4 hours, after a use solution was generated from the detergent composition. During the tests, the samples at different time points were collected and immediately frozen in an acetone/dry ice bath and stored in −80° C. before the activity of the enzyme was evaluated. For the use of such an assay, t=0 min was the reference point for 100% enzyme activity.
Assays of enzyme activity in formulations (% retention) were conducted to simulate a presoak condition in a beaker using the chemistry, temperature, and pH conditions relevant to manual warewash or presoak applications. Enzyme activity is an indicator of the stability of the enzyme in the detergent, specifically in an aqueous use solution within a sump (which is under conditions of high pH, temperature and dilution).
The analysis by protease assay was conducted as follows. For the assays, a detergent composition was used to generate an aqueous use solution evaluated herein.
Enzyme activity under presoak or manual warewash conditions was traced quantitatively using a standard protease assay. Samples were prepared under bench top conditions, whereby the use solution from a detergent composition or detergent was obtained and maintained at a presoak or manual warewash temperature in a stirring water bath. After the time course for assessing enzyme stability is initiated, aliquots were taken at various time points and flash-frozen. A time=0 sample was prepared for each series by dissolving the detergent formulation at room temperature, mixing thoroughly, and flash freezing. Samples were thawed and diluted as necessary in an assay buffer usually for use in the protease assay. A glycine buffer at pH 9.0 is used here. The assay monitored the direct reaction of the protease on a small, commercially available peptidyl substrate, with liberation of the product providing correlation to the active enzyme content. The product was detected using a plate reader with an appreciable dynamic range (upper absorbance limit of the instrument >3.5). Enzyme activity levels were assessed relative to a calibration curve with average values for replicate tests used to map protease stability under presoak or manual warewash use conditions. Enzyme retention at each time point was calculated as the % enzyme activity relative to the time=0 sample.

In the case of O=P(O)(O)CN(CP(=O)(O)O)CP(=O)(O)O [ATMP, Aminotri (methylene phosphonic acid)], the “Relative Protease Enzyme Activity” value (All Ash formula, phosphonate 0.3 wt-%, time 0 min) was 100.00%, the “Relative Protease Enzyme Activity” value (All Ash formula, phosphonate 0.3 wt-%, time 5 min) was 84.60% and the “Relative Protease Enzyme Activity” value (All Ash formula, phosphonate 0.3 wt-%, time 10 min) was 75.67%. For the same compound, the “Relative Protease Enzyme Activity” value (All Ash formula, phosphonate 0.3 wt-%, time 20 min) was 53.32%, the “Relative Protease Enzyme Activity” value (All Ash formula, phosphonate 0.3 wt-%, time 40 min) was 33.78% and the “Relative Protease Enzyme Activity” value (All Ash formula, phosphonate 0.3 wt-%, time 60 min) was 22.22%. For the same compound, the “Relative Protease Enzyme Activity” value (All Ash formula, phosphonate 0.3 wt-%, time 90 min) was 15.40%, the “Relative Protease Enzyme Activity” value (All Ash formula, phosphonate 0.3 wt-%, time 120 min) was 11.13% and the “Relative Protease Enzyme Activity” value (All Ash formula, phosphonate 0.3 wt-%, time 150 min) was 9.39%. The “Relative Protease Enzyme Activity” value (All Ash formula, phosphonate 0.3 wt-%, time 180 min) was 7.41%, the “Relative Protease Enzyme Activity” value (All Ash formula, phosphonate 0.3 wt-%, time 210 min) was 6.17% and the “Relative Protease Enzyme Activity” value (All Ash formula, phosphonate 0.3 wt-%, time 240 min) was 5.58%. For the same compound, the “protease stability in all ash formula” value (all ash formula, versus same composition with PBTC or HEDP without amine(s), FIG. 2D) was “more stable”, the “Relative Protease Enzyme Activity” value (base formula, phosphonate 0.3 wt-%, time 0 min) was 100.00% and the “Relative Protease Enzyme Activity” value (base formula, phosphonate 0.3 wt-%, time 5 min) was 94.95%. For the same compound, the “Relative Protease Enzyme Activity” value (base formula, phosphonate 0.3 wt-%, time 10 min) was 94.68%, the “Relative Protease Enzyme Activity” value (base formula, phosphonate 0.3 wt-%, time 20 min) was 89.76% and the “Relative Protease Enzyme Activity” value (base formula, phosphonate 0.3 wt-%, time 40 min) was 87.06%. For the same compound, the “Relative Protease Enzyme Activity” value (base formula, phosphonate 0.3 wt-%, time 60 min) was 83.93%, the “Relative Protease Enzyme Activity” value (base formula, phosphonate 0.3 wt-%, time 90 min) was 80.79% and the “Relative Protease Enzyme Activity” value (base formula, phosphonate 0.3 wt-%, time 120 min) was 76.31%. The “Relative Protease Enzyme Activity” value (base formula, phosphonate 0.3 wt-%, time 150 min) was 73.96%, the “Relative Protease Enzyme Activity” value (base formula, phosphonate 0.3 wt-%, time 180 min) was 70.37% and the “Relative Protease Enzyme Activity” value (base formula, phosphonate 0.3 wt-%, time 210 min) was 65.72%. The “Relative Protease Enzyme Activity” value (base formula, phosphonate 0.3 wt-%, time 240 min) was 63.75%, the “Relative Protease Enzyme Activity” value (base formula, phosphonate 0.6 wt-%, time 0 min) was 100.00% and the “Relative Protease Enzyme Activity” value (base formula, phosphonate 0.6 wt-%, time 5 min) was 91.70%. The “Relative Protease Enzyme Activity” value (base formula, phosphonate 0.6 wt-%, time 10 min) was 102.58%, the “Relative Protease Enzyme Activity” value (base formula, phosphonate 0.6 wt-%, time 20 min) was 100.03% and the “Relative Protease Enzyme Activity” value (base formula, phosphonate 0.6 wt-%, time 40 min) was 97.16%. For the same compound, the “Relative Protease Enzyme Activity” value (base formula, phosphonate 0.6 wt-%, time 60 min) was 92.31%, the “Relative Protease Enzyme Activity” value (base formula, phosphonate 0.6 wt-%, time 90 min) was 89.99% and the “Relative Protease Enzyme Activity” value (base formula, phosphonate 0.6 wt-%, time 120 min) was 91.60%. The “Relative Protease Enzyme Activity” value (base formula, phosphonate 0.6 wt-%, time 150 min) was 86.21%, the “Relative Protease Enzyme Activity” value (base formula, phosphonate 0.6 wt-%, time 180 min) was 89.08% and the “Relative Protease Enzyme Activity” value (base formula, phosphonate 0.6 wt-%, time 210 min) was 89.86%. The “Relative Protease Enzyme Activity” value (base formula, phosphonate 0.6 wt-%, time 240 min) was 82.33%, the “Relative Protease Enzyme Activity” value (base formula, phosphonate at 0.1% elemental phosphorus, time 0 min) was 100.00% and the “Relative Protease Enzyme Activity” value (base formula, phosphonate at 0.1% elemental phosphorus, time 5 min) was 122.55%. For the same compound, the “Relative Protease Enzyme Activity” value (base formula, phosphonate at 0.1% elemental phosphorus, time 10 min) was 116.65%, the “Relative Protease Enzyme Activity” value (base formula, phosphonate at 0.1% elemental phosphorus, time 20 min) was 115.14% and the “Relative Protease Enzyme Activity” value (base formula, phosphonate at 0.1% elemental phosphorus, time 40 min) was 107.73%. The “Relative Protease Enzyme Activity” value (base formula, phosphonate at 0.1% elemental phosphorus, time 60 min) was 102.70%, the “Relative Protease Enzyme Activity” value (base formula, phosphonate at 0.1% elemental phosphorus, time 90 min) was 111.18% and the “Relative Protease Enzyme Activity” value (base formula, phosphonate at 0.1% elemental phosphorus, time 120 min) was 106.19%. For the same compound, the “Relative Protease Enzyme Activity” value (base formula, phosphonate at 0.1% elemental phosphorus, time 150 min) was 96.80%, the “Relative Protease Enzyme Activity” value (base formula, phosphonate at 0.1% elemental phosphorus, time 180 min) was 93.35% and the “Relative Protease Enzyme Activity” value (base formula, phosphonate at 0.1% elemental phosphorus, time 210 min) was 90.51%. The “Relative Protease Enzyme Activity” value (base formula, phosphonate at 0.1% elemental phosphorus, time 240 min) was 88.60%.
